Data: US8022086B2, “Therapeutic agent for glomerular disease” (Kowa Co., Ltd., priority 2004, dated 2011)

System: rat model of glomerular basement membrane (GBM) nephritis
Assay: Pharmacological test employing rat model of glomerular basement membrane (GBM) nephritis: urinary total protein excretion
Type: in vivo, Wistar male rats
Details: anti-GBM antibody-induced nephritis rats, repeated oral administration for two weeks; for 18-hour urinary total protein excretion: pitavastatin calcium 30 mg/kg, candesartan cilexetil 3 mg/kg, control group 316, N=7; for 18-hour urinary total protein excretion compared with control group (significance): versus no drug administration group
Description: Wistar male rats (six weeks old, purchased from Japan Laboratory Animals, Inc.) were quarantined and acclimatized for four days, and employed for the test. Firstly, a rat GBM rabbit IgG antibody was prepared, and then an antibody solution was adjusted with saline upon use to be 31 mg IgG antibody/mL saline. Thereafter, each of the rats was fixated under unanesthetized conditions, and the antibody solution was intravenously administered (1 mL/kg) through the tail vein, whereby progressive renal disorder was induced. The resultant rats were divided into four groups (N=7 for each), and immediately thereafter, the below-described test was carried out. […] In the drug administration groups, the respective drugs were repeatedly orally administered for two weeks. In each of the groups, after completion of two-week drug administration, urine was collected from each rat for 18 hours in a metabolic cage (Product of […] Co., Ltd.), and urinary total protein excretion was measured.

SMILES	18-hour urinary total protein excretion [mg/18 h/kg]	18-hour urinary total protein excretion compared with control group (significance)
CCOc1nc2cccc(C(=O)OC(C)OC(=O)OC3CCCCC3)c2n1Cc1ccc(-c2ccccc2-c2nnn[nH]2)cc1 (stereo not shown) [candesartan cilexetil, 1-(cyclohexyloxycarbonyloxy)ethyl 2-ethoxy-1-[[2′-(1H-tetrazol-5-yl)biphenyl-4-yl]methyl]-1H-benzimidazole-7-carboxylate]	92	lower, but not significantly lower
O=C(O)C[C@H](O)C[C@H](O)/C=C/c1c(C2CC2)nc2ccccc2c1-c1ccc(F)cc1 [pitavastatin calcium, (3R, 5S, 6B)-7-[2-cyclopropyl-4-(4-fluorophenyl)-3-quinolyl]-3,5-dihydroxy-6-heptenoic acid]	138	lower, but not significantly lower
